From PubChem BioAssay AID248 (DTP/NCI, 2004)
“And” between values parts separate entries of the source, which are not always exact repeats. Equal entries are not always repeated. Inconclusive results and toxic doses are left out. Rule as the data show it: active = T/C of 150% or more; inactive = T/C below 125%.

Tested on: L1210 leukemia ip in BDF1 mice, survival T/C
Assay: NCI In Vivo Anticancer Drug Screen. Data for tumor model L1210 Leukemia (intraperitoneal) in B6D2F1 (BDF1) mice
Settings: endpoint: mean survival time, higher = longer survival
How it was run: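 In this screen, tumor-bearing mice given compound are compared to those given vehicle, and their survival values are reported as a treated-to-control quotient.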

[1] = dose: 100.0 mg/kg/injection, schedule: Q01DX009 (ip), vehicle: Klucel (hydroxypropylcellulose) (HPC)
[2] = dose: 100.0 mg/kg/injection, schedule: Q04DX003 (ip), vehicle: Klucel (hydroxypropylcellulose) (HPC)
[3] = dose: 200.0 mg/kg/injection, schedule: Q01DX009 (ip), vehicle: Klucel (hydroxypropylcellulose) (HPC)
[4] = dose: 200.0 mg/kg/injection, schedule: Q04DX003 (ip), vehicle: Klucel (hydroxypropylcellulose) (HPC)
[5] = dose: 400.0 mg/kg/injection, schedule: Q01DX009 (ip), vehicle: Klucel (hydroxypropylcellulose) (HPC)
[6] = dose: 400.0 mg/kg/injection, schedule: Q04DX003 (ip), vehicle: Klucel (hydroxypropylcellulose) (HPC)
[7] = dose: 12.5 mg/kg/injection, schedule: Q04DX003 (ip), vehicle: Klucel (hydroxypropylcellulose) (HPC)
[8] = dose: 25.0 mg/kg/injection, schedule: Q04DX003 (ip), vehicle: Klucel (hydroxypropylcellulose) (HPC)
[9] = dose: 50.0 mg/kg/injection, schedule: Q04DX003 (ip), vehicle: Klucel (hydroxypropylcellulose) (HPC)
[10] = dose: 100.0 mg/kg/injection, schedule: Q04DX002 (ip), vehicle: saline with Tween-80
[11] = dose: 50.0 mg/kg/injection, schedule: Q01DX001 (ip), vehicle: saline
[12] = dose: 100.0 mg/kg/injection, schedule: Q01DX001 (ip), vehicle: saline

Measured: T/C

O=C(c1ccccc1)C(CBr)C(Br)c1ccccc1 (configuration not stated)
inactive: [1] 90 % of control | [2] 98 % of control | [3] 101 % of control | [4] 95 % of control | [5] 93 % of control | [6] 88 % of control

Cc1cc2nc3c(=O)[nH]c(=O)nc-3n(CC(O)C(O)C(O)C(O)CO)c2cc1C (configuration not stated)
inactive: dose: 14.12 mg/kg/injection, schedule: Q01DX Z (ip), vehicle: carboxymethylcellulose (CMC) 91 % of control | dose: 25.0 mg/kg/injection, schedule: Q01DX015 (ip), vehicle: saline 100 % of control | dose: 28.25 mg/kg/injection, schedule: Q01DX Z (ip), vehicle: carboxymethylcellulose (CMC) 93 % of control | dose: 50.0 mg/kg/injection, schedule: Q01DX015 (ip), vehicle: saline 96 % of control | dose: 56.5 mg/kg/injection, schedule: Q01DX Z (ip), vehicle: carboxymethylcellulose (CMC) 90 % of control | dose: 100.0 mg/kg/injection, schedule: Q01DX015 (ip), vehicle: saline 96 % of control | dose: 100.0 mg/kg/injection, schedule: Q01DX Z (ip), vehicle: carboxymethylcellulose (CMC) 97 % of control | dose: 113.0 mg/kg/injection, schedule: Q01DX Z (ip), vehicle: carboxymethylcellulose (CMC) 89 % of control | dose: 200.0 mg/kg/injection, schedule: Q01DX015 (ip), vehicle: saline 97 % of control and 98 % of control | dose: 200.0 mg/kg/injection, schedule: Q01DX Z (ip), vehicle: carboxymethylcellulose (CMC) 97 % of control | dose: 400.0 mg/kg/injection, schedule: Q01DX001 (ip), vehicle: acetone 103 % of control | dose: 400.0 mg/kg/injection, schedule: Q01DX015 (ip), vehicle: saline 92 % of control | dose: 400.0 mg/kg/injection, schedule: Q01DX Z (ip), vehicle: carboxymethylcellulose (CMC) 94 % of control | dose: 800.0 mg/kg/injection, schedule: Q01DX001 (ip), vehicle: acetone 95 % of control | dose: 800.0 mg/kg/injection, schedule: Q01DX Z (ip), vehicle: carboxymethylcellulose (CMC) 90 % of control

CCCCCCCCCCCCSCCOC(=O)C1C2CCC(O2)C1C(=O)O (configuration not stated)
inactive: [7] 96 % of control | [8] 100 % of control | [9] 90 % of control

CCCn1c2c(c(=O)n(CC)c1=O)SC(OCC)C(=O)N2 (configuration not stated)
inactive: dose: 78.0 mg/kg/injection, schedule: Q01DX Z (ip), vehicle: other 96 % of control and 103 % of control | dose: 116.0 mg/kg/injection, schedule: Q01DX Z (ip), vehicle: other 108 % of control and 110 % of control | dose: 175.0 mg/kg/injection, schedule: Q01DX Z (ip), vehicle: other 116 % of control and 87 % of control | dose: 262.5 mg/kg/injection, schedule: Q01DX Z (ip), vehicle: other 92 % of control

Cn1c(O)c(N=Nc2ccccc2[N+](=O)[O-])c2ccccc21
inactive: dose: 100.0 mg/kg/injection, schedule: Q01DX001 (ip), vehicle: other 95 % of control | dose: 200.0 mg/kg/injection, schedule: Q01DX001 (ip), vehicle: other 90 % of control | dose: 400.0 mg/kg/injection, schedule: Q01DX001 (ip), vehicle: other 95 % of control

Cn1c(N)c(C=O)c(=O)n(C)c1=O
inactive: [7] 95 % of control | [8] 105 % of control | [9] 96 % of control

CC(=O)Oc1c(F)c(F)c(F)c(F)c1F
inactive: dose: 25.0 mg/kg/injection, schedule: Q04DX002 (ip), vehicle: saline with Tween-80 87 % of control | dose: 50.0 mg/kg/injection, schedule: Q04DX002 (ip), vehicle: saline with Tween-80 90 % of control | [10] 93 % of control

CCCCCCCCCCOc1ccc(OC)cc1
inactive: dose: 100.0 mg/kg/injection, schedule: Q04DX002 (ip), vehicle: other 103 % of control | dose: 200.0 mg/kg/injection, schedule: Q04DX002 (ip), vehicle: other 95 % of control | dose: 400.0 mg/kg/injection, schedule: Q04DX002 (ip), vehicle: other 106 % of control

Cc1cc(C)n(/N=C/c2ccccc2)c(=O)c1C#N
inactive: dose: 100.0 mg/kg/injection, schedule: Q01DX001 (ip), vehicle: carboxymethylcellulose (CMC) 91 % of control | dose: 200.0 mg/kg/injection, schedule: Q01DX001 (ip), vehicle: carboxymethylcellulose (CMC) 91 % of control | dose: 400.0 mg/kg/injection, schedule: Q01DX001 (ip), vehicle: carboxymethylcellulose (CMC) 91 % of control

Cc1n(CC(C)C)c2c([n+]1CC(=O)c1ccc([N+](=O)[O-])cc1)C(=O)c1ccccc1C2=O
inactive: dose: 5.0 mg/kg/injection, schedule: Q01DX001 (ip), vehicle: carboxymethylcellulose (CMC) 93 % of control | dose: 10.0 mg/kg/injection, schedule: Q01DX001 (ip), vehicle: carboxymethylcellulose (CMC) 86 % of control | dose: 20.0 mg/kg/injection, schedule: Q01DX001 (ip), vehicle: carboxymethylcellulose (CMC) 97 % of control

CCOC(=O)C1(C#N)C(=O)CSC1=Nc1ccccc1Cl (configuration not stated)
inactive: [10] 95 % of control | dose: 200.0 mg/kg/injection, schedule: Q04DX002 (ip), vehicle: saline with Tween-80 102 % of control | dose: 400.0 mg/kg/injection, schedule: Q04DX002 (ip), vehicle: saline with Tween-80 95 % of control

COC(=O)C1=C(c2ccncc2)c2cccc3cccc1c23
inactive: dose: 100.0 mg/kg/injection, schedule: Q04DX003 (ip), vehicle: alcohol 94 % of control | dose: 200.0 mg/kg/injection, schedule: Q04DX003 (ip), vehicle: alcohol 102 % of control

CCOC(OCC)OC(C)=O
inactive: dose: 100.0 mg/kg/injection, schedule: Q01DX009 (ip), vehicle: saline 107 % of control | dose: 100.0 mg/kg/injection, schedule: Q04DX003 (ip), vehicle: saline 110 % of control | dose: 200.0 mg/kg/injection, schedule: Q01DX009 (ip), vehicle: saline 98 % of control | dose: 200.0 mg/kg/injection, schedule: Q04DX003 (ip), vehicle: saline 97 % of control | dose: 400.0 mg/kg/injection, schedule: Q01DX009 (ip), vehicle: saline 90 % of control | dose: 400.0 mg/kg/injection, schedule: Q04DX003 (ip), vehicle: saline 103 % of control

O=C1/C(=C/c2ccc([N+](=O)[O-])cc2)SC(=S)N1C1OC(CO)C(O)C(O)C1O (configuration not stated)
inactive: dose: 25.0 mg/kg/injection, schedule: Q01DX005 (ip), vehicle: water 95 % of control | dose: 50.0 mg/kg/injection, schedule: Q01DX005 (ip), vehicle: water 95 % of control | dose: 100.0 mg/kg/injection, schedule: Q01DX005 (ip), vehicle: water 93 % of control

CC(C)(O)/C=C/C(=O)[C@](C)(O)[C@H]1[C@H](O)C[C@@]2(C)[C@@H]3CC=C4[C@@H](C=C(O)C(=O)C4(C)C)[C@]3(C)C(=O)C[C@]12C
inactive: dose: 100.0 micrograms/kg/injection, schedule: Q01DX001 (sc), vehicle: steriod suspending solution 104 % of control | dose: 200.0 micrograms/kg/injection, schedule: Q01DX001 (sc), vehicle: steriod suspending solution 102 % of control | dose: 400.0 micrograms/kg/injection, schedule: Q01DX001 (sc), vehicle: steriod suspending solution 104 % of control | dose: 800.0 micrograms/kg/injection, schedule: Q01DX001 (sc), vehicle: steriod suspending solution 96 % of control

CC1([N+](=O)[O-])COP(=O)(Nc2ccc(Br)cc2)OC1 (configuration not stated)
inactive: [11] 93 % of control | [12] 98 % of control | dose: 200.0 mg/kg/injection, schedule: Q01DX001 (ip), vehicle: saline 104 % of control | dose: 400.0 mg/kg/injection, schedule: Q01DX001 (ip), vehicle: saline 122 % of control

c1ccc(CCN2CCC(CCc3c[nH]c4ccccc34)CC2)cc1
inactive: [11] 96 % of control | [12] 117 % of control

CNC(=O)ON=C(C)C
inactive: dose: 75.0 mg/kg/injection, schedule: Q01DX001 (ip), vehicle: saline 102 % of control | dose: 75.0 mg/kg/injection, schedule: Q01DX009 (ip), vehicle: saline 99 % of control | dose: 150.0 mg/kg/injection, schedule: Q01DX001 (ip), vehicle: saline 102 % of control | dose: 150.0 mg/kg/injection, schedule: Q01DX009 (ip), vehicle: saline 94 % of control | dose: 300.0 mg/kg/injection, schedule: Q01DX001 (ip), vehicle: saline 109 % of control | dose: 300.0 mg/kg/injection, schedule: Q01DX009 (ip), vehicle: saline 108 % of control

COC(=O)c1ccc(OS(=O)(=O)c2cccc([N+](=O)[O-])c2)cc1
inactive: [1] 96 % of control | [2] 90 % of control | [3] 98 % of control | [4] 95 % of control | [5] 118 % of control | [6] 90 % of control
